In patent publication US20080004325A1, “PTP1B inhibitors” (Wyeth, priority 2006, published 2008) one finds Ki data, which are given here for ten compounds.

Bounds are passed on as bounds.

In this assay the target is T1, catalytic domain of human PTP1b (residues 1-299) (Homo sapiens, UniProt P18031).
T1 construct: catalytic domain of human PTP1b (residues 1-299); made in house; host or cells: E. coli
T1 sequence (P18031 1-299): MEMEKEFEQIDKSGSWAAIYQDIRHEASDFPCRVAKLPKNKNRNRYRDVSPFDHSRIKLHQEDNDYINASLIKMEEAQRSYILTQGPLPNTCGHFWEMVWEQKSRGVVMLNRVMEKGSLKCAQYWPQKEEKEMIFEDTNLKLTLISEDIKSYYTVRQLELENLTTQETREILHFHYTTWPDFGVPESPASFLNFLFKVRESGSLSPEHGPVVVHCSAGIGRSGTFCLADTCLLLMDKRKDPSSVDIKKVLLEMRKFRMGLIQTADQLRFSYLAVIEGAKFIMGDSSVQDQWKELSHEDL
Nature of the assay: PTP1b pNPP hydrolysis inhibition assay. Type of assay: biochemical. The settings on record: pNPP substrate, 25° C., pH 7.0, three fixed inhibitor concentrations; read-out: Ki Micromolar. The procedure:
The p-nitrophenyl phosphate (pNPP) substrate was purchased from Sigma. PTPase activity was measured at room temperature (25° C.) in a 200 ul reaction mixture with various concentrations of substrate. Reactions began with enzyme addition and were quenched after 2-3 minutes with 1N NaOH. Background hydrolysis of pNPP was measured without addition of enzyme. […] All experiments were performed in 50 mM 3,3-dimethylglutarate buffer (pH 7.0), with 10 mM DTT, 1 mM EDTA, and with the ionic strength adjusted to 0.15 M with NaCl. All solutions were prepared in distilled, deionized water. For initial evaluation of each compound, percent inhibition was determined for two concentrations of compound (for example at 200 uM and 20 uM) at a fixed pNPP concentration.
Percent inhibition was determined following background subtraction of the non-enzymatic hydrolysis rate compared to no inhibitor (DMSO only) controls. Inhibition constants and inhibition patterns were evaluated using the direct curve-fitting program GraFit (Erithacus Software Limited).

On to `O=C1CN(c2csc(-c3ccccc3)c2)S(=O)(=O)N1` [5-(5-phenyl-3-thienyl)-1,2,5-thiadiazolidin-3-one 1,1-dioxide], for which the inhibition constant (Ki) came out at 150 µM.

For `Cc1c(N2CC(=O)NS2(=O)=O)csc1-c1cccc(NC2CCN(S(=O)(=O)Cc3ccccc3)CC2)c1` [5-[5-(3-{[1-(benzylsulfonyl)piperidine-4-yl]amino}phenyl)-4-methyl-3-thienyl]-1,2,5-thiadiazolidin-3-one 1,1-dioxide], the Ki was determined as 4 µM.

Turning to `Cc1c(N2CC(=O)NS2(=O)=O)csc1-c1cccc([N+](=O)[O-])c1` [5-[4-methyl-5-(3-nitrophenyl)-3-thienyll-1,2,5-thiadiazolidin-3-one 1,1-dioxide], the Ki was determined as 34 µM.

For `O=C1CN(c2csc(-c3cccc(NC4CCCCC4)c3)c2)S(=O)(=O)N1` [5-5-[3-(cyclohexylamino)phenyl]-3-thienyl}-1,2,5-thiadiazolidin-3-one 1,1-dioxide], the Ki came out at 12 µM.

For `O=C1CN(c2csc(-c3cccc(NC4CCCCC4)c3)c2Cl)S(=O)(=O)N1` [5-{4-chloro-5-[3-(cyclohexylamino)phenyl]-3-thienyl}-1,2,5-thiadiazolidin-3-one 1,1-dioxide], the inhibitory constant (Ki) was 14 µM.

Consider `O=C1CN(c2csc(-c3ccccc3)c2Br)S(=O)(=O)N1` [5-(4-bromo-5-phenyl-3-thienyl)-1,2,5-thiadiazolidin-3-one 1,1-dioxide], for which the Ki was 18 µM.

Consider `Cc1c(N2CC(=O)NS2(=O)=O)csc1-c1ccccc1` [5-(4-methyl-5-phenyl-3-thienyl)-1,2,5-thiadiazolidin-3-one 1,1-dioxide], for which the Ki stood at 41 µM.

Regarding `Cc1c(N2CC(=O)NS2(=O)=O)csc1-c1cccc(NC2CC(C)(C)CC(C)(C)C2)c1`, the Ki stood at 15 µM.

On to `CC1C(=O)NS(=O)(=O)N1c1csc(-c2ccccc2)c1` (stereo not shown) [4-methyl-5-(5-phenyl-3-thienyl)-1,2,5-thiadiazolidin-3-one 1,1-dioxide], for which the Ki is greater than 1000 µM.

For `NS(=O)(=O)N(c1cccc(-c2scc(N3CC(=O)NS3(=O)=O)c2Cl)c1)C1CCCCC1` [N-{3-[3-chloro-4-(1,1-dioxido-4-oxo-1,2,5-thiadiazolidin-2-yl)-2-thienyl]phenyl}-N-cyclohexylsulfamide], the Ki amounted to 1.7 µM.
